Source: patent US20060229433A1, “Modified antiviral peptides with increased activity and cell membrane affinity” (priority 2003, published 2006)
Where “and” joins values, the source holds several entries; their conditions need not be identical. Identical values can stand only once.

Assays:
Format in all cases: cell-based
HIV-1 NL 4-3 [1] = assay: HIV-1 infection of C8166 cells (syncytia formation, p24 ELISA) with HIV-1 NL 4-3
In short: (§1)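 Infection was read out as syncytia and as cell-free p24 in supernatants (ELISA) from C8166 cells that received HIV-1 (1000 TCID50/ml, 1 h, 37 °C) after a 1 h peptide pretreatment. Peptide stayed on before, during and after adsorption. Toxicity was checked by daily trypan-blue counts.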

HIV-1 NL 4-3 [2] = assay: as above; parameters: key: ++, +, (+), (+)− and − represent decreasing numbers of syncitia formed; ++, +, (+), (+)− and − represent decreasing numbers of syncitia formed; ++, +, (+), (+)− and − represent decreasing numbers of syncitia formed; ++, +, (+), (+)− and − represent decreasing numbers of syncitia formed; ++, +, (+), (+)− and − represent decreasing numbers of syncitia formed
In short: as §1

HIV-1 NDK = assay: HIV-1 infection of C8166 cells (syncytia formation, p24 ELISA) with HIV-1 NDK; parameters: key to syncitia formed, Day 4 / syncitia formed, Day 5 / syncitia formed, Day 6 / syncitia formed, Day 7: ++, +, (+), (+)− and − represent decreasing numbers of syncitia formed; ++, +, (+), (+)− and − represent decreasing numbers of syncitia formed; ++, +, (+), (+)− and − represent decreasing numbers of syncitia formed; ++, +, (+), (+)− and − represent decreasing numbers of syncitia formed; ++, +, (+), (+)− and − represent decreasing numbers of syncitia formed; details: for P 24: P 24 after Day 7
In short: as §1

[3] = C8166 cells, HIV-1 subtype B NL 4-3, Table 9, two lines = tested twice, 8 days apart

C[C@H](NC(=O)[C@H](CCCNC(=N)N)NC(=O)CNC(=O)[C@@H]1CCCN1C(=O)CN)C(=O)N[C@@H](Cc1ccccc1)C(=O)NCCCC[C@H](NC(=O)[C@H](Cc1ccccc1)NC(=O)[C@H](C)NC(=O)[C@H](CCCNC(=N)N)NC(=O)CNC(=O)[C@@H]1CCCN1C(=O)CN)C(=O)NCCCC[C@H](NC(=O)[C@H](CCCCNC(=O)[C@H](Cc1ccccc1)NC(=O)[C@H](C)NC(=O)[C@H](CCCNC(=N)N)NC(=O)CNC(=O)[C@@H]1CCCN1C(=O)CN)NC(=O)[C@H](Cc1ccccc1)NC(=O)[C@H](C)NC(=O)[C@H](CCCNC(=N)N)NC(=O)CNC(=O)[C@@H]1CCCN1C(=O)CN)C(=O)NCCCC[C@H](NC(=O)[C@H](CCCCNC(=O)[C@H](CCCCNC(=O)[C@H](Cc1ccccc1)NC(=O)[C@H](C)NC(=O)[C@H](CCCNC(=N)N)NC(=O)CNC(=O)[C@@H]1CCCN1C(=O)CN)NC(=O)[C@H](Cc1ccccc1)NC(=O)[C@H](C)NC(=O)[C@H](CCCNC(=N)N)NC(=O)CNC(=O)[C@@H]1CCCN1C(=O)CN)NC(=O)[C@H](CCCCNC(=O)[C@H](Cc1ccccc1)NC(=O)[C@H](C)NC(=O)[C@H](CCCNC(=N)N)NC(=O)CNC(=O)[C@@H]1CCCN1C(=O)CN)NC(=O)[C@H](Cc1ccccc1)NC(=O)[C@H](C)NC(=O)[C@H](CCCNC(=N)N)NC(=O)CNC(=O)[C@@H]1CCCN1C(=O)CN)C(=O)NCCC(=O)O [SPC3, (GPGRAF)8-K4-K2-K-βA-OH, reference compound]
Day 7 syncitia formed (HIV-1 NL 4-3 [1]; 0.005 μM, Table 6): ++/T | Day 7 syncitia formed (HIV-1 NL 4-3 [1]; 0.01 μM, Table 6): ++/T | Day 7 syncitia formed (HIV-1 NL 4-3 [1]; 0.05 μM, Table 6): ++/T | IC50 (HIV-1 NL 4-3 [1]; C8166 cells, HIV-1 subtype B NL 4-3, Table 3): 0.5 µM | IC50 (HIV-1 NL 4-3 [1]; [3]): 0.5 µM | IC100 (HIV-1 NL 4-3 [1]; [3]): 5 µM | P 24 (HIV-1 NL 4-3 [1]; Day 4, 5 μM, Table 1): NEG | P 24 (HIV-1 NL 4-3 [1]; Day 4, 5 μM, Table 2): NEG | P 24 (HIV-1 NL 4-3 [1]; Day 7, 0.005 μM, Table 6): 23810 pg/mL | P 24 (HIV-1 NL 4-3 [1]; Day 7, 0.01 μM, Table 6): 23810 pg/mL | P 24 (HIV-1 NL 4-3 [1]; Day 7, 0.05 μM, Table 6): 23810 pg/mL | P 24 (HIV-1 NL 4-3 [1]; Day 7, 0.1 μM, Table 6): 17810 pg/mL and 19850 pg/mL | P 24 (HIV-1 NL 4-3 [1]; Day 7, 0.5 μM, Table 6): 5173 pg/mL and 4840 pg/mL | P 24 (HIV-1 NL 4-3 [1]; Day 7, 2 μM, Table 1): 7589 pg/mL and 14787 pg/mL | P 24 (HIV-1 NL 4-3 [1]; Day 7, 5 μM, Table 1): NEG | P 24 (HIV-1 NL 4-3 [1]; Day 7, 5 μM, Table 2): 288 pg/mL and 342 pg/mL | P 24 (HIV-1 NL 4-3 [1]; Day 7, 5 μM, Table 6): 3 pg/mL | Day 4 syncitia formed (HIV-1 NL 4-3 [2]; 0.005 μM, Table 6): − | Day 5 syncitia formed (HIV-1 NL 4-3 [2]; 0.005 μM, Table 6): + | Day 6 syncitia formed (HIV-1 NL 4-3 [2]; 0.005 μM, Table 6): ++ | Day 4 syncitia formed (HIV-1 NL 4-3 [2]; 0.01 μM, Table 6): − | Day 5 syncitia formed (HIV-1 NL 4-3 [2]; 0.01 μM, Table 6): + | Day 6 syncitia formed (HIV-1 NL 4-3 [2]; 0.01 μM, Table 6): ++ | Day 4 syncitia formed (HIV-1 NL 4-3 [2]; 0.05 μM, Table 6): − | Day 5 syncitia formed (HIV-1 NL 4-3 [2]; 0.05 μM, Table 6): + | Day 6 syncitia formed (HIV-1 NL 4-3 [2]; 0.05 μM, Table 6): ++ | Day 4 syncitia formed (HIV-1 NL 4-3 [2]; 0.1 μM, Table 6): − | Day 5 syncitia formed (HIV-1 NL 4-3 [2]; 0.1 μM, Table 6): (+) | Day 6 syncitia formed (HIV-1 NL 4-3 [2]; 0.1 μM, Table 6): + and ++ | Day 7 syncitia formed (HIV-1 NL 4-3 [2]; 0.1 μM, Table 6): ++ | Day 4 syncitia formed (HIV-1 NL 4-3 [2]; 0.5 μM, Table 6): − | Day 5 syncitia formed (HIV-1 NL 4-3 [2]; 0.5 μM, Table 6): − | Day 6 syncitia formed (HIV-1 NL 4-3 [2]; 0.5 μM, Table 6): (+) | Day 7 syncitia formed (HIV-1 NL 4-3 [2]; 0.5 μM, Table 6): + | Day 4 syncitia formed (HIV-1 NL 4-3 [2]; 1 μM, Table 6): − | Day 5 syncitia formed (HIV-1 NL 4-3 [2]; 1 μM, Table 6): − | Day 6 syncitia formed (HIV-1 NL 4-3 [2]; 1 μM, Table 6): − | Day 7 syncitia formed (HIV-1 NL 4-3 [2]; 1 μM, Table 6): (+) | Day 4 syncitia formed (HIV-1 NL 4-3 [2]; 2 μM, Table 1): − | Day 5 syncitia formed (HIV-1 NL 4-3 [2]; 2 μM, Table 1): (+) and (+)− | Day 6 syncitia formed (HIV-1 NL 4-3 [2]; 2 μM, Table 1): + | Day 7 syncitia formed (HIV-1 NL 4-3 [2]; 2 μM, Table 1): ++ | Day 4 syncitia formed (HIV-1 NL 4-3 [2]; 5 μM, Table 1): − | Day 5 syncitia formed (HIV-1 NL 4-3 [2]; 5 μM, Table 1): − | Day 6 syncitia formed (HIV-1 NL 4-3 [2]; 5 μM, Table 1): − | Day 7 syncitia formed (HIV-1 NL 4-3 [2]; 5 μM, Table 1): − | Day 4 syncitia formed (HIV-1 NL 4-3 [2]; 5 μM, Table 6): − | Day 5 syncitia formed (HIV-1 NL 4-3 [2]; 5 μM, Table 6): − | Day 6 syncitia formed (HIV-1 NL 4-3 [2]; 5 μM, Table 6): − | Day 7 syncitia formed (HIV-1 NL 4-3 [2]; 5 μM, Table 6): − | syncitia formed, Day 4 (HIV-1 NDK; 0.005 μM): − | syncitia formed, Day 5 (HIV-1 NDK; 0.005 μM): + | syncitia formed, Day 6 (HIV-1 NDK; 0.005 μM): ++ | syncitia formed, Day 7 (HIV-1 NDK; 0.005 μM): ++/T | P 24 (HIV-1 NDK; 0.005 μM): 23810 pg/mL | syncitia formed, Day 4 (HIV-1 NDK; 0.01 μM): − | syncitia formed, Day 5 (HIV-1 NDK; 0.01 μM): + | syncitia formed, Day 6 (HIV-1 NDK; 0.01 μM): ++ | syncitia formed, Day 7 (HIV-1 NDK; 0.01 μM): ++/T | P 24 (HIV-1 NDK; 0.01 μM): 23810 pg/mL | syncitia formed, Day 4 (HIV-1 NDK; 0.05 μM): − | syncitia formed, Day 5 (HIV-1 NDK; 0.05 μM): + | syncitia formed, Day 6 (HIV-1 NDK; 0.05 μM): ++ | syncitia formed, Day 7 (HIV-1 NDK; 0.05 μM): ++/T | P 24 (HIV-1 NDK; 0.05 μM): 23810 pg/mL | syncitia formed, Day 4 (HIV-1 NDK; 0.1 μM): − | syncitia formed, Day 5 (HIV-1 NDK; 0.1 μM): (+) | syncitia formed, Day 6 (HIV-1 NDK; 0.1 μM): + and ++ | syncitia formed, Day 7 (HIV-1 NDK; 0.1 μM): ++ | P 24 (HIV-1 NDK; 0.1 μM): 18810 pg/mL and 20850 pg/mL | syncitia formed, Day 4 (HIV-1 NDK; 0.5 μM): − | syncitia formed, Day 5 (HIV-1 NDK; 0.5 μM): − | syncitia formed, Day 6 (HIV-1 NDK; 0.5 μM): + | syncitia formed, Day 7 (HIV-1 NDK; 0.5 μM): ++ | P 24 (HIV-1 NDK; 0.5 μM): 15173 pg/mL and 12840 pg/mL | syncitia formed, Day 4 (HIV-1 NDK; 1 μM): − | syncitia formed, Day 5 (HIV-1 NDK; 1 μM): − | syncitia formed, Day 6 (HIV-1 NDK; 1 μM): − | syncitia formed, Day 7 (HIV-1 NDK; 1 μM): (+) | syncitia formed, Day 4 (HIV-1 NDK; 5 μM): − | syncitia formed, Day 5 (HIV-1 NDK; 5 μM): − | syncitia formed, Day 6 (HIV-1 NDK; 5 μM): − | syncitia formed, Day 7 (HIV-1 NDK; 5 μM): − | IC50 (HIV-1 NDK; HIV 1 NDK, Table 10): 0.6 µM | IC100 (HIV-1 NDK; HIV 1 NDK, Table 10): 5 µM
